From patent publication US6603023B2 (priority 1996, dated 2003)
Values joined by “and” are separate entries in the source; they are usually repeats but may differ in a detail not shown here. Identical values can stand only once. Counter-ions that a name gives are not always drawn. Like-named read-outs stand apart in the source and are kept apart here. Marks after values point to notes of the source that are not given here.

Tests used:
[1] = system: CCRF-CEM human T-cell acute lymphoblastic leukemia cell line; assay: XTT cytotoxicity (cell growth inhibition), CCRF-CEM
How it was run: (§1)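 Suspension leukemic cells (CCRF-CEM, P388 and drug-resistant sublines kept under the selecting agent) were seeded at 5×10^4 cells/mL in RPMI-1640 with 10% FBS at 37 °C. After 72 h drug exposure in duplicate, PMS-XTT was added for 4 h. Absorbance was read at 450 and 630 nm.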

[2] = system: CCRF-CEM/VBL100; assay: cells; assay type: cell-based, human; details: for fold resistance (cross-resistance) vs parent CCRF-CEM: CCRF-CEM/VBL100 MDR cells; for (B)/(A) IC50 ratio: CCRF-CEM/VBL100 vs CCRF-CEM
How it was run: as §1

[3] = system: CCRF-CEM/VM1; assay: cells; assay type: cell-based, human; details: for (D)/(A) IC50 ratio: CCRF-CEM/VM1 vs CCRF-CEM
How it was run: as §1

[4] = system: CCRF-CEM/Taxol®; assay: cells; assay type: cell-based, human; details: for IC50: 72 h
How it was run: as §1

[5] = system: B16 Melanoma; assay type: in vivo, B6D2F1 mice
[6] = system: CCRF-CEM/Taxol®; assay: CCRF-CEM/Taxol xenograft, i.v. 6 h infusion; assay type: in vivo, nude mice
Description: Treatment on days 6, 8, 10, 12 and 14.
Treatment on days 19, 21, 23, 25, 27, 39, 41, 43, 45 and 47.

[7] = system: MDR human mammary adenocarcinoma MCF-7/Adr xenograft; assay: in vivo; details: for toxicity: dEpoB 35 mg/kg Q2Dx5 i.p.
Experimental: DMSO was used as a vehicle for epothilones. Each mouse received ≦40 μL DMSO in all experiments.
Athymic nude mice (nu/nu) were used for MX-1 and MCF-7/Adr human mammary carcinoma xenografts. Mice were obtained from Taconic Laboratory Animals and Service (Germantown, N.Y.: outbred, Swiss background).

[8] = system: DC-3F/ADII; assay: SRB cytotoxicity, DC-3F/ADII; assay type: cell-based, hamster; details: Mesocricetus auratus, DC3F
How it was run: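 Hamster lung fibroblast DC-3F sublines selected with actinomycin D (ADII moderate, ADX very strong MDR), maintained under selecting agent in RPMI 1640-10% FBS at 37° C. Monolayers exposed to six to seven drug concentrations in duplicate, TCA-fixed, stained with 0.4% SRB; absorbance 570 nm, analyzed by median-effect plot.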

[9] = system: CCRF-CEM; assay: Drug combination analysis (combination index, XTT, 72 h); assay type: cell-based; details: Homo sapiens, median-effect parameter, read-out: Dm (IC50)
[10] = Table 1A, XTT, 72 h, read-out: IC50
[11] = Table 6, single determinations, read-out: IC50
[12] = 10 mg/kg QD × 8 from day 1, day 5
[13] = 10 mg/kg QD × 8 from day 1, day 7
[14] = 10 mg/kg QD × 8 from day 1, day 9
[15] = 10 mg/kg QD × 8 from day 1, day 11
[16] = CCRF/Taxol Leukemia, dEpoB 30 mg/kg Q2D x 6, Taxol 15 mg/kg Q2D x 6
[17] = 35 mg/kg i.p. Q2Dx5 from day 8, day 11
[18] = 35 mg/kg i.p. Q2Dx5 from day 8, day 13
[19] = 35 mg/kg i.p. Q2Dx5 from day 8, day 15
[20] = 35 mg/kg i.p. Q2Dx5 from day 8, day 17
[21] = 0.4 mg/kg QD × 6 from day 1, day 5
[22] = 0.4 mg/kg QD × 6 from day 1, day 9
[23] = 0.4 mg/kg QD × 6 from day 1, day 11
[24] = 0.8 mg/kg QD × 5 from day 1, day 5
[25] = 0.8 mg/kg QD × 5 from day 1, day 7
[26] = 0.8 mg/kg QD × 5 from day 1, day 11
[27] = Homo sapiens, CCRF-CEM, 72 h, Table 1A, XTT
[28] = Homo sapiens, CCRF-CEM, Table 5, single determinations
[29] = Homo sapiens, CCRF-CEM, read-out: IC50 (mean ± of determinations, in parentheses), Table 5

SMILES: C/C1=C/C[C@@H](/C(C)=C/c2csc(C)n2)OC(=O)C[C@H](O)C(C)(C)C(=O)[C@H](C)[C@@H](O)[C@@H](C)CCC1 [Desoxyepothilone B, desoxyepothilone B]
- IC50 [1]: 9.5 nM
- IC50 ([1]; Table 1, XTT): 9 nM
- IC50 ([1]; Table 1A, XTT, 72 h): 9.5 nM
- IC50 ([1]; Table 6, single determinations): 9.5 nM
- IC50 ([1]; Table 7, CEM): 9.5 nM
- fold resistance (cross-resistance) vs parent CCRF-CEM ([2]; listed as dEpoB): 1.8 fold
- IC50 ([2]; Table 1, XTT, read-out: IC50): 17 nM
- (B)/(A) IC50 ratio ([2]; Table 1A): 1.8
- IC50 [2, 10]: 17 nM
- IC50 [2, 11]: 17 nM
- IC50 ([2]; Table 7, CEM/VBL, read-out: IC50): 16.9 nM
- IC50 ([2]; read-out: IC50): 17 nM
- IC50 ([3]; Table 1, XTT, read-out: IC50): 14 nM
- (D)/(A) IC50 ratio ([3]; Table 1A): 1.5
- IC50 [3, 10]: 14 nM
- IC50 [3, 11]: 14 nM
- (C)/(A) IC50 ratio [4]: 1.7
- IC50 ([4]; Table 1A, XTT, read-out: IC50): 16.2 nM
- # Mice Died ([5]; 10 mg/kg QD × 8 from day 1): 0/6
- Average weight change ([5]; 10 mg/kg QD × 8 from day 1, day 3): -0.7 g
- Average Tumor Volume (T/C) [5, 12]: 0.23
- Average weight change [5, 12]: -0.9 g
- Average Tumor Volume (T/C) [5, 13]: 0.22
- Average weight change [5, 13]: -1.1 g
- Average Tumor Volume (T/C) [5, 14]: 0.51
- Average weight change [5, 14]: -1.5 g
- Average Tumor Volume (T/C) [5, 15]: 0.28
- Average weight change [5, 15]: -0.3 g
- mice died ([5]; 10 mg/kg QDx8 from day 1 (FIG. 44)): 0 of 8
- # Mice Died ([5]; 20 mg/kg QD1-4,7-8): 0/6
- Average weight change ([5]; 20 mg/kg QD1-4,7-8, day 3): -1.3 g
- Average Tumor Volume (T/C) ([5]; 20 mg/kg QD1-4,7-8, day 5): 0.59
- Average weight change ([5]; 20 mg/kg QD1-4,7-8, day 5): -2.2 g
- Average Tumor Volume (T/C) ([5]; 20 mg/kg QD1-4,7-8, day 7): 0.63
- Average weight change ([5]; 20 mg/kg QD1-4,7-8, day 7): -1.3 g
- Average Tumor Volume (T/C) ([5]; 20 mg/kg QD1-4,7-8, day 9): 0.58
- Average weight change ([5]; 20 mg/kg QD1-4,7-8, day 9): -1.6 g
- Average weight change ([5]; 20 mg/kg QD1-4,7-8, day 11): -0.8 g
- Therapeutic effect Rank Order ([5]; mouse, in vivo, ip): dEpoB > Taxol ® >> EpoB
- therapeutic outcome ([6]; 6 hr i.v. infusion): full cure
- Therapeutic effect Rank Order ([6]; CCRF-CEM/Taxol, i.v. infusion): dEpoB >>> Taxol ®
- Lowest Average Tumor Size (T/C) [6, 16]: 0 T/C
- Tumor Disappearance [6, 16]: 3/3
- Therapeutic Effects dEpoB vs Taxol ([6]; CCRF/Taxol Leukemia, dEpoB 30 mg/kg Q2D x 6 vs Taxol 15 mg/kg Q2D x 6): >>>
- Toxicity Death ([7]; 35 mg/kg i.p. Q2Dx5 from day 8): 0/8
- Average Body Weight Change [7, 17]: 0.3 g
- Average Tumor Size (T/C) [7, 17]: 0.31**
- Average Body Weight Change [7, 18]: +0.7 g
- Average Tumor Size (T/C) [7, 18]: 0.27***
- Average Body Weight Change [7, 19]: +0.6 g
- Average Tumor Size (T/C) [7, 19]: 0.30***
- Average Body Weight Change [7, 20]: +0.8 g
- Average Tumor Size (T/C) [7, 20]: 0.34*
- tumor size reduction ([7]; 35 mg/kg, day 17): 66%
- therapeutic outcome ([7]; 6 hr i.v. infusion, Q2Dx5): far better than Taxol®, although Q2Dx5 did not achieve a cure
- toxicity ([7]; listed as dEpoB): negligible toxicity
- toxicity ([7]; listed as desoxyepothilone B): no reduction in body weight or apparent toxicity
- Average Body Weight (change), Day 14 ([7]; mouse, in vivo): -2.7 g
- Average Body Weight (change), Day 16 ([7]; mouse, in vivo): -4.0 g
- Average Body Weight (change), Day 18 ([7]; mouse, in vivo): -4.5 g
- Average Body Weight, Day 8 ([7]; mouse, in vivo): 30.3 g
- Average Tumor Size (T/C), Day 14 ([7]; mouse, in vivo): 0.16*** T/C
- Average Tumor Size (T/C), Day 16 ([7]; mouse, in vivo): 0.15 T/C
- Average Tumor Size (T/C), Day 18 ([7]; mouse, in vivo): 0.13*** T/C
- Lowest Average Tumor Size (T/C) ([7]; mouse, in vivo): 0.11 T/C
- Therapeutic Effects dEpoB vs Taxol ([7]; mouse, in vivo): >>
- Toxicity Death ([7]; mouse, in vivo): 0/3
- Tumor Disappearance ([7]; mouse, in vivo): 0
- Therapeutic effect Rank Order ([7]; mouse, in vivo, ip): dEpoB >> Camptothecin >
- Therapeutic effect Rank Order ([7]; mouse, in vivo, iv): dEpoB >> VP-16,

SMILES: C/C(=C\c1csc(C)n1)[C@@H]1C[C@@H]2O[C@]2(C)CCC[C@H](C)[C@H](O)[C@@H](C)C(=O)C(C)(C)[C@@H](O)CC(=O)O1 [Epothilone B, epothilone B]
- IC50 [1]: 0.35 nM
- fold more potent than Epo A ([1]; CCRF-CEM cells): 6 fold
- fold more potent than Taxol ([1]; CCRF-CEM cells): 10 fold
- Rel. Value (potency relative to Epo B) ([1]; CCRF-CEM leukemic cells): 1
- IC50 ([1]; Table 1, XTT): 0.4 nM
- fold resistance (cross-resistance) vs parent CCRF-CEM [2]: 5 fold
- fold resistance (cross-resistance) vs parent CCRF-CEM ([2]; listed as EpoB): 6.1 fold
- Potency in parentheses relative to Epo B in CCRF-CEM cells ([2]; CCRF-CEM/VBL MDR cells): 1/6
- Potency in square brackets relative to Epo B in CCRF-CEM/VBL MDR cells ([2]; CCRF-CEM/VBL MDR cells): 1
- IC50 ([2]; Table 1, XTT, read-out: IC50): 3 nM
- (B)/(A) IC50 ratio ([2]; Table 1A): 6.1
- IC50 ([2]; listed as Epo B, read-out: IC50): 2.1 nM
- IC50 ([2]; read-out: IC50): 2 nM
- IC50 ([3]; Table 1, XTT, read-out: IC50): 2 nM
- (D)/(A) IC50 ratio ([3]; Table 1A): 3.6
- IC50 [3, 10]: 1.3 nM
- (C)/(A) IC50 ratio ([4]; Table 1A, CCRF-CEM/Taxol vs CCRF-CEM): 3.1
- IC50 ([4]; Table 1A, XTT, read-out: IC50): 1.1 nM
- # Mice Died ([5]; 0.4 mg/kg QD × 6 from day 1): 1/8
- Average weight change ([5]; 0.4 mg/kg QD × 6 from day 1, day 3): -0.2 g
- Average Tumor Volume (T/C) [5, 21]: 1.08
- Average weight change [5, 21]: -0.6 g
- Average weight change ([5]; 0.4 mg/kg QD × 6 from day 1, day 7): -1.1 g
- Average Tumor Volume (T/C) [5, 22]: 1.27
- Average weight change [5, 22]: -3.4 g
- Average Tumor Volume (T/C) [5, 23]: 1.07
- Average weight change [5, 23]: -3.9 g
- mice died of toxicity ([5]; 0.4 mg/kg QDx6 from day 1 (FIG. 44)): 1 of 8
- Average weight change ([5]; 0.8 mg/kg QD × 5 from day 1, day 3): 0 g
- Average Tumor Volume (T/C) [5, 24]: 0.57
- Average weight change [5, 24]: -0.8 g
- Average Tumor Volume (T/C) [5, 25]: 0.89
- Average weight change [5, 25]: -3.1 g
- Average weight change ([5]; 0.8 mg/kg QD × 5 from day 1, day 9): -4.7 g
- Average Tumor Volume (T/C) [5, 26]: 0.21
- Average weight change [5, 26]: -4.7 g
- mice died ([5]; 0.8 mg/kg QDx5 from day 1 (FIG. 44)): 5 of 8

SMILES: CC[C@]1(O)C[C@@H]2CN(CCc3c([nH]c4ccccc34)[C@@](C(=O)OC)(c3cc4c(cc3OC)N(C)[C@H]3[C@@](O)(C(=O)OC)[C@H](OC(C)=O)[C@]5(CC)C=CCN6CC[C@]43[C@@H]65)C2)C1 [Vinblastine, Vinblastine sulfate]
- IC50 ([1]; Homo sapiens, CCRF-CEM): 0.63 nM
- IC50 [1, 27]: 6.3 nM
- IC50 ([1]; Homo sapiens, CCRF-CEM, Table 2): 0.68 nM
- IC50 [1, 28]: 0.8 nM
- IC50 [1, 29]: 0.63 nM
- IC50 ([1]; Table 5, single determinations): 0.6 nM and 0.5 nM
- IC50 [8]: 78.9 nM
- IC50 [9]: 0.61 nM
- IC50 ([2]; Homo sapiens, CCRF-CEM): 332 nM
- IC50 [2, 27]: 332 nM
- IC50 ([2]; Homo sapiens, CCRF-CEM, Table 2, CCRF-CEM/VLB): 465 nM
- IC50 ([2]; Homo sapiens, CCRF-CEM, Table 5, CCRF-CEM/VLB, single determinations): 440 nM
- IC50 [2, 29]: 332 nM
- IC50 ([2]; Table 5, CCRF-CEM/VLB, single determinations): 221 nM and 336 nM
- IC50 [3, 27]: 0.41 nM
- IC50 ([3]; Homo sapiens, CCRF-CEM, Table 2, CCR-CEM/VM-1): 0.68 nM
- IC50 [3, 28]: 0.49 nM
- IC50 [3, 29]: 0.41 nM
- IC50 ([3]; Table 5, single determinations): 0.39 nM and 0.36 nM
- IC50 ([4]; Homo sapiens, CCRF-CEM): 6.9 nM
